Results from patent US7449301B2, “Pharmaceutical composition and method for activating macrophage using the same” (National University Corporation Gunma University, priority 2004, dated 2008).

What was measured:
Type in all cases: cell-based, mouse
[1] = system: MAPK; assay: Immunoblot of activated (phosphorylated) MAPK in PEMs; settings: 50 μM PD98059 or 2 μM U0126, FIG. 2B, C bottom
Procedure: PEMs were treated with anti-SIRPβ antibody or control IgG, and a secondary antibody, and incubated at 37° C. for 10 min. As a positive control, PEMs were incubated at 37° C. for 10 min in the presence of M-CSF (macrophage colony stimulating factor) (10 ng/ml). As a negative control, non-treated PEMs were used. Then, cells were lysed and subjected to immunoblot analysis using an anti-MAPK antibody (αMAPK), anti-activated (phosphorylated) MAPK antibody (αpMAPK), anti-MEK antibody (αMEK) or anti-activated MEK antibody (αpMEK) (FIG. 2A).
Then, the MEK inhibitors, PD98059 and U0126 were used to examine the role of MAPK-MEK pathway in the macrophage activation by an anti-SIRPβ antibody. PEMs were incubated in the presence or absence of 50 μM PD98059 or 2 μM U0126 at 37° C. for 30 min, and then treated with an anti-SIRPβ antibody or control IgG, and a secondary antibody. After incubation with IgG-opsonized RBCs at 37° C. for 5 min, cells were fixed and phagocytosis index was calculated (FIG. 2B, C; upper figures). On the other hand, PEMs were treated with an anti-SIRPβ antibody or control IgG, and a secondary antibody in the presence or absence of the inhibitors, followed by an analysis using an anti-MAPK antibody (αMAPK) and an anti-activated (phosphorylated) MAPK antibody (αpMAPK) (FIG. 2B, C; bottom figures). […]

[2] = system: peritoneal macrophages (PEMs); assay: Phagocytosis assay of PEMs with RBCs (phagocytosis index); settings: PEMs preincubated 30 min with ML-7 10 μM or BDM 50 mM; IgG-opsonized RBCs 5 min; FIG. 3
[3] = system: PEMs; assay: Immunocytofluorescence of PEMs (morphology, F-actin, activated MAPK); settings: PEMs treated with mAb80 in presence of inhibitor; FIG. 4B
Procedure: PEMs treated with rat IgG, mAb80 or mAb84 were fixed for 20 to 30 min at room temperature in PBS containing 4% paraformaldehyde and 0.1% glutaraldehyde, and were then permeabilized for 60 min at room temperature in PBS containing 0.1% Triton X-100 and 5% goat serum (blocking solution). After incubation for 1 h at room temperature or overnight at 4° C. with primary antibody (anti-activated MAPK antibody) diluted in blocking solution, the cells were washed with PBS and incubated for 1 h at room temperature with Alexa488-conjugated secondary antibodies (Molecular Probes) diluted in blocking solution. For visualization of F-actin, cells were incubated with rhodamine-conjugated phalloidin (Molecular Probes) together with the secondary antibodies. The cells were finally washed with PBS and mounted. Fluorescence images were acquired with a laser-scanning confocal microscope (LSM5 PASCAL, Zeiss) (FIG. 4).

| Structure (SMILES) | activation of MAPK by mAb80 and mAb84 in the presence of MEK inhibitor [1] | effect of inhibitor on anti-SIRPβ antibody activation of macrophage-mediated phagocytosis [2] | effect of inhibitor on morphological change of PEMs induced by anti-SIRPβ antibody [3] |
| --- | --- | --- | --- |
| N#CC(=C(/N)Sc1ccccc1N)/C(C#N)=C(\N)Sc1ccccc1N [U0126] | did not occur | – | – |
| CC(=O)C(C)=NO [BDM, 2,3-butanedione 2-monoxime] | – | attenuated the activation of macrophages-mediated phagocytosis | – |
| O=S(=O)(c1cccc2c(I)cccc12)N1CCCNCC1 [ML-7] | – | attenuated the activation of macrophages-mediated phagocytosis | markedly inhibited |
| COc1cccc(-c2cc(=O)c3ccccc3o2)c1N [PD98059] | did not occur | – | markedly inhibited |
